{
  "source": "paper PMC12316308",
  "about": "“Interactions of substrates and phosphinyl containing inhibitors with bacterial and human zinc proteases” (PLOS One, 2025)",
  "key": {"[1]": {"molecular_target": "T1, APMA activated MMP-9 (MMP-9(A)) (Homo sapiens, UniProt P14780)", "T1 construct": "made in house; host or cells: Sf9 and High Five insect cells", "T1 sequence (P14780 107-707 limits assumed)": "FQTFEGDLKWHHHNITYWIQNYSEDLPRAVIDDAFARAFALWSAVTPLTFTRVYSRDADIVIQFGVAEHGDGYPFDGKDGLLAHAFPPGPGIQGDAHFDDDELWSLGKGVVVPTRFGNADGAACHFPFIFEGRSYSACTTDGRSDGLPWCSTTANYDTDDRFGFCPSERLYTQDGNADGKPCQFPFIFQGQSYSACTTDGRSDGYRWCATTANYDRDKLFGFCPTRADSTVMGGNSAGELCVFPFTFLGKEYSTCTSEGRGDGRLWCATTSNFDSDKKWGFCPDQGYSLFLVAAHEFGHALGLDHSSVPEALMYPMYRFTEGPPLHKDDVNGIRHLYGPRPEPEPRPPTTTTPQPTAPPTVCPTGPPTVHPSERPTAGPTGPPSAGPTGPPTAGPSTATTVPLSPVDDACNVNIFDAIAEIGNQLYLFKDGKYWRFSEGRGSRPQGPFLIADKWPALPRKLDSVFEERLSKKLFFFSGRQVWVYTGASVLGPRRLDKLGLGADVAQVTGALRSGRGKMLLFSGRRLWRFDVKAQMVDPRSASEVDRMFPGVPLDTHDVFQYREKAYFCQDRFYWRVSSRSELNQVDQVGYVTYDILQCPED", "experiment": "Enzyme inhibition kinetics, fluorogenic substrate ES001", "assay_type": "biochemical", "conditions": "for Vi/V0 AVG: APMA activated MMP-9, average", "procedure,_shortened": "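Recombinant full-length proMMP-9 expressed in insect cells was auto-activated with APMA and titrated with galardin. Activity at 0.05 nM enzyme was measured using 4.0 µM fluorogenic substrate ES001 in 100 µL 0.1 M Hepes pH 7.5 containing 10 mM CaCl2, 0.005% Brij-35 and 1.0% DMSO. Initial rates were followed at 37°C (excitation 320 nm, emission 405 nm) relative to inhibitor-free controls.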"}, "[2]": {"molecular_target": "T2, Mag-Trypsin activated MMP-9 (MMP-9(MT)) (Homo sapiens, UniProt P14780)", "T2 construct": "made in house; host or cells: Sf9 and High Five insect cells", "T2 sequence (P14780 107-707 limits assumed)": "as above", "experiment": "Enzyme inhibition kinetics, fluorogenic substrate ES001", "assay_type": "biochemical", "conditions": "for Vi/V0 avg: Trypsin activated MMP-9, average"}},
  "note": "“And” between values parts separate entries of the source, which are not always exact repeats. Identical values can stand only once. Like-named read-outs stand apart in the source and are kept apart here.",
  "data": [
    {"smiles": "NC(=O)C(CCC(=O)O)NC(=O)C(CCC(=O)O)NC(=O)C(Cc1cc(-c2ccc(-c3cccc(Cl)c3)cc2)no1)CP(=O)(O)c1ccc(Br)cc1", "note": "(stereo not drawn) [H-1]", "values": [
      {"measurement": "Ki", "setting": "[1]", "result": "19 ± 3", "unit": "µM"},
      {"measurement": "remaining activity at 100 µM", "setting": "[1]; 0.25 h, read-out: vi/v0 avg, rMMP-9 (APMA activated), 100 µM inhibitor, 15 min pre incubation", "result": 25.7, "unit": "%"},
      {"measurement": "remaining activity at 100 µM", "setting": "[1]; 0.5 h, read-out: vi/v0 avg, rMMP-9 (APMA activated), 100 µM inhibitor, 30 min pre incubation", "result": 25.3, "unit": "%"},
      {"measurement": "Vi/V0 AVG", "setting": "[1]; [H1] 10 μM", "result": 0.7315},
      {"measurement": "Vi/V0 AVG", "setting": "[1]; [H1] 20 μM", "result": 0.5955},
      {"measurement": "Vi/V0 AVG", "setting": "[1]; [H1] 30 μM", "result": 0.5816},
      {"measurement": "Vi/V0 AVG", "setting": "[1]; [H1] 40 μM", "result": 0.5052},
      {"measurement": "Vi/V0 AVG", "setting": "[1]; [H1] 50 μM", "result": 0.4481},
      {"measurement": "Vi/V0 AVG", "setting": "[1]; [H1] 60 μM", "result": 0.4125},
      {"measurement": "Vi/V0 AVG", "setting": "[1]; [H1] 70 μM", "result": 0.3558},
      {"measurement": "Vi/V0 AVG", "setting": "[1]; [H1] 80 μM", "result": 0.3478},
      {"measurement": "Vi/V0 AVG", "setting": "[1]; [H1] 90 μM", "result": 0.3201},
      {"measurement": "Vi/V0 AVG", "setting": "[1]; [H1] 100 μM", "result": 0.265},
      {"measurement": "inhibitory effect on enzymatic activity", "setting": "[1]; MMP-9(A), 100 μM compound, in words", "result": "strong inhibition"},
      {"measurement": "vi/v0 Av (bar diagram figure 7)", "setting": "[1]; rMMP-9 (APMA activated), inhibitor 100 μM, average over 0, 15, 30 min preincubation", "result": 0.2424},
      {"measurement": "vi/v0 (relative enzyme activity with inhibitor), single determinations", "setting": "[1]; rMMP-9 (APMA activated), inhibitor 100 μM, preincubation 0 min", "result": "0.1639 and 0.167 and 0.1831 and 0.1727 and 0.3076 and 0.251 and 0.276"},
      {"measurement": "remaining activity at 20 µM", "setting": "[1]; read-out: Vi/V0, APMA activated MMP-9, [H1] 20 μM, replicate vi over each of 4 controls", "result": 59.1, "unit": "%"},
      {"measurement": "remaining activity at 40 µM", "setting": "[1]; read-out: Vi/V0, APMA activated MMP-9, [H1] 40 μM, replicate vi over each of 4 controls", "result": 41.9, "unit": "%"},
      {"measurement": "remaining activity at 50 µM", "setting": "[1]; read-out: Vi/V0, APMA activated MMP-9, [H1] 50 μM, replicate vi over each of 4 controls", "result": 41.4, "unit": "%"},
      {"measurement": "remaining activity at 60 µM", "setting": "[1]; read-out: Vi/V0, APMA activated MMP-9, [H1] 60 μM, replicate vi over each of 4 controls", "result": 36.8, "unit": "%"},
      {"measurement": "remaining activity at 70 µM", "setting": "[1]; read-out: Vi/V0, APMA activated MMP-9, [H1] 70 μM, replicate vi over each of 4 controls", "result": 33.5, "unit": "%"},
      {"measurement": "remaining activity at 80 µM", "setting": "[1]; read-out: Vi/V0, APMA activated MMP-9, [H1] 80 μM, replicate vi over each of 4 controls", "result": 32.6, "unit": "%"},
      {"measurement": "remaining activity at 90 µM", "setting": "[1]; read-out: Vi/V0, APMA activated MMP-9, [H1] 90 μM, replicate vi over each of 4 controls", "result": 27.8, "unit": "%"},
      {"measurement": "remaining activity at 100 µM", "setting": "[1]; read-out: Vi/V0, APMA activated MMP-9, [H1] 100 μM, replicate vi over each of 4 controls", "result": 23.6, "unit": "%"},
      {"measurement": "remaining activity at 100 µM", "setting": "[1]; read-out: vi/v0 (single replicate), rMMP-9 (APMA activated), 100 µM inhibitor, no preincubation", "result": 16.4, "unit": "%"},
      {"measurement": "remaining activity at 100 µM", "setting": "[1]; read-out: vi/v0 avg, rMMP-9 (APMA activated), 100 µM inhibitor, no preincubation", "result": 21.7, "unit": "%"},
      {"measurement": "Ki", "setting": "[2]", "result": "30 ± 4", "unit": "µM"},
      {"measurement": "remaining activity at 100 µM", "setting": "[2]; 0.25 h, read-out: vi/v0 (single replicate), rMMP-9 (Mag-trypsin activated), 100 µM inhibitor, 15 min pre incubation", "result": 38.1, "unit": "%"},
      {"measurement": "remaining activity at 100 µM", "setting": "[2]; 0.25 h, read-out: vi/v0 avg, rMMP-9 (Mag-trypsin activated), 100 µM inhibitor, 15 min pre incubation", "result": 47.9, "unit": "%"},
      {"measurement": "remaining activity at 100 µM", "setting": "[2]; 0.5 h, read-out: vi/v0 (single replicate), rMMP-9 (Mag-trypsin activated), 100 µM inhibitor, 30 min pre incubation", "result": 47.4, "unit": "%"},
      {"measurement": "remaining activity at 100 µM", "setting": "[2]; 0.5 h, read-out: vi/v0 avg, rMMP-9 (Mag-trypsin activated), 100 µM inhibitor, 30 min pre incubation", "result": 47.5, "unit": "%"},
      {"measurement": "inhibitory effect on enzymatic activity", "setting": "[2]; MMP-9(MT), 100 μM compound, in words", "result": "strong inhibition"},
      {"measurement": "Vi/V0 avg", "setting": "[2]; [H1] 10 μM", "result": 0.823},
      {"measurement": "Vi/V0 avg", "setting": "[2]; [H1] 20 μM", "result": 0.766},
      {"measurement": "Vi/V0 avg", "setting": "[2]; [H1] 30 μM", "result": 0.6506},
      {"measurement": "Vi/V0 avg", "setting": "[2]; [H1] 40 μM", "result": 0.6729},
      {"measurement": "Vi/V0 avg", "setting": "[2]; [H1] 50 μM", "result": 0.6218},
      {"measurement": "Vi/V0 avg", "setting": "[2]; [H1] 60 μM", "result": 0.5683},
      {"measurement": "Vi/V0 avg", "setting": "[2]; [H1] 70 μM", "result": 0.5353},
      {"measurement": "Vi/V0 avg", "setting": "[2]; [H1] 80 μM", "result": 0.5363},
      {"measurement": "Vi/V0 avg", "setting": "[2]; [H1] 90 μM", "result": 0.4452},
      {"measurement": "Vi/V0 avg", "setting": "[2]; [H1] 100 μM", "result": 0.4212},
      {"measurement": "vi/v0 Av (bar diagram figure 7)", "setting": "[2]; rMMP-9 (Mag-trypsin activated), inhibitor 100 μM, average over 0, 15, 30 min preincubation", "result": 0.4755},
      {"measurement": "vi/v0 (relative enzyme activity with inhibitor), single determinations", "setting": "[2]; rMMP-9 (Mag-trypsin activated), inhibitor 100 μM, preincubation 0 min", "result": "0.4571 and 0.4536 and 0.4887 and 0.489"},
      {"measurement": "vi/v0 (relative enzyme activity with inhibitor), single determinations", "setting": "[2]; rMMP-9 (Mag-trypsin activated), inhibitor 100 μM, preincubation 15 min", "result": "0.3806 and 0.5206 and 0.4881 and 0.528"},
      {"measurement": "vi/v0 (relative enzyme activity with inhibitor), single determinations", "setting": "[2]; rMMP-9 (Mag-trypsin activated), inhibitor 100 μM, preincubation 30 min", "result": "0.4739 and 0.4997 and 0.4971 and 0.4295"},
      {"measurement": "remaining activity at 10 µM", "setting": "[2]; read-out: Vi/V0, Trypsin activated MMP-9, [H1] 10 μM, replicate vi over each of 4 controls", "result": 76.1, "unit": "%"},
      {"measurement": "remaining activity at 40 µM", "setting": "[2]; read-out: Vi/V0, Trypsin activated MMP-9, [H1] 40 μM, replicate vi over each of 4 controls", "result": 63.2, "unit": "%"},
      {"measurement": "remaining activity at 50 µM", "setting": "[2]; read-out: Vi/V0, Trypsin activated MMP-9, [H1] 50 μM, replicate vi over each of 4 controls", "result": 58.9, "unit": "%"},
      {"measurement": "remaining activity at 60 µM", "setting": "[2]; read-out: Vi/V0, Trypsin activated MMP-9, [H1] 60 μM, replicate vi over each of 4 controls", "result": 52.9, "unit": "%"},
      {"measurement": "remaining activity at 70 µM", "setting": "[2]; read-out: Vi/V0, Trypsin activated MMP-9, [H1] 70 μM, replicate vi over each of 4 controls", "result": 49.6, "unit": "%"},
      {"measurement": "remaining activity at 80 µM", "setting": "[2]; read-out: Vi/V0, Trypsin activated MMP-9, [H1] 80 μM, replicate vi over each of 4 controls", "result": 51, "unit": "%"},
      {"measurement": "remaining activity at 90 µM", "setting": "[2]; read-out: Vi/V0, Trypsin activated MMP-9, [H1] 90 μM, replicate vi over each of 4 controls", "result": 44.2, "unit": "%"},
      {"measurement": "remaining activity at 100 µM", "setting": "[2]; read-out: Vi/V0, Trypsin activated MMP-9, [H1] 100 μM, replicate vi over each of 4 controls", "result": 40.5, "unit": "%"}
    ]}
  ]
}
